Key:
RgNanOx [1] = biological target: T1, RgNanOx (Mediterraneibacter gnavus, UniProt A7B558); test: differential scanning fluorimetry; format: binding; settings: […] NADH, […] protein, […] sodium phosphate pH […]
T1 construct: gene RUMGNA_02695; Gfo/Idh/MocA-class Rossmann fold; dimer in the asymmetric unit

RgNanOx [2] = biological target: T1, RgNanOx; test: X-ray crystal structure of the complex ([…] and […] A); format: binding; settings: NAD+ bound at Rossmann fold; citric acid from crystallization buffer beside nicotinamide; sodium citrate pH […], PEG […]

In the case of `NC(=O)C1=CN([C@@H]2O[C@H](COP(=O)(O)OP(=O)(O)OC[C@H]3O[C@@H](n4cnc5c(N)ncnc54)[C@H](O)[C@@H]3O)[C@@H](O)[C@H]2O)C=CC1` [NADH], the ΔTm (RgNanOx [1]) is reported as “DSF analysis of RgNanOx and EcNanOx, the ΔTm is shown”.
`NC(=O)c1ccc[n+]([C@@H]2O[C@H](COP(=O)(O)OP(=O)(O)OC[C@H]3O[C@@H](n4cnc5c(N)ncnc54)[C@H](O)[C@@H]3O)[C@@H](O)[C@H]2O)c1` [NAD^+] was tested, and the “X-ray crystal structure of the complex (2.58 and 1.74 A)” value (RgNanOx [2]) was “crystal structure of the recombinant RgNanOx in complex with the NAD^+ cofactor was solved”.

Reference: publication PMC7535918, “Uncovering a novel molecular mechanism for scavenging sialic acids in bacteria” (The Journal of Biological Chemistry, 2020)
